Experimental data reported in US20080058339A1, “New compounds” (Biovitrum, priority 2006, published 2008).

Biological target: T1, human GPR119 receptor (Homo sapiens, UniProt Q8TDV5)
T1 construct: expressed in transfected cells
T1 sequence (Q8TDV5 1-335): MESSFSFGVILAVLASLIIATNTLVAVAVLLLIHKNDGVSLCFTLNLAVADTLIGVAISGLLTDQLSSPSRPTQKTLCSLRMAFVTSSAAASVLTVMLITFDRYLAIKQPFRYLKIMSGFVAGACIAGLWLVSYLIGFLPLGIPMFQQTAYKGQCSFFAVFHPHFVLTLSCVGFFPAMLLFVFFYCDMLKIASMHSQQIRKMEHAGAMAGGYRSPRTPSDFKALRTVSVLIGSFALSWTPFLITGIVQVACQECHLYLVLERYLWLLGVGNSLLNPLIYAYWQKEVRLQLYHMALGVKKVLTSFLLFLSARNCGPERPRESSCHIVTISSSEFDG
Test: Human GPR119 activity assay (cAMP HTRF in HEK293-hGPR119 cells)
Assay type: cell-based
Conditions: cAMP stimulation in HEK293 cells stably expressing human GPR119, 20 min incubation, read-out: Agonist potency at the human GPR119, EC50
Protocol: Human GPR119 Activity Assay
Agonists to the human GPR119 receptor were characterized by measuring human GPR119 receptor-mediated stimulation of cyclic AMP (cAMP) in HEK 293 cells expressing the human GPR119 receptor.
Briefly, cAMP content was determined using a cAMP kit based on HTRF technology (Homogeneous Time-Resolved Fluorescence, Cisbio Cat. no. 62AM2PEC). HEK293 cells stably expressing the human GPR119 receptor (HEK293-hGPR119 cells) were cultured in DMEM (Gibco #31966-021) supplemented with 10% Bovine Calf Serum (Hyclone #SH30072.03), and, 500 μg/mL Hygromycin B (Roche Diagnostics 843555). At 80% confluency, cells were detached using Trypsine and aliquoted at a density of 5×10^6 cells/mL in freezing medium (DMEM (Gibco # 31966-021), 20% BCS (Hyclone #SH30072.03), 10% DMSO (Sigma #D2650) and stored at −135° C. On the experimental day, HEK293-hGPR119 cells were thawn and diluted to 0.4×10^6 cells/mL in assay buffer (1×HBSS (Gibco Cat. no. 14025-049), 20 mM Hepes (Gibco Cat. no. 15630-056), 0.1% BSA, pH 7.4) and incubated with test substances for 20 min at room temperature. After addition of HTRF reagents diluted in lysis buffer, the 96- or 384-well plates were incubated 1 hour, followed by measuring the fluorescence ratio at 665 nm/620 nm. […]

| Structure (SMILES) | EC50 |
| --- | --- |
| CCN(Cc1ccc(-c2ccc(S(C)(=O)=O)cc2)nn1)C1CCN(C(=O)OC(C)(C)C)CC1 [Example A4, tert-Butyl 4-[ethyl({6-[4-(methylsulfonyl)phenyl]pyridazin-3-yl}methyl)amino]-piperidine-1-carboxylate] | 0.083 µM |
| CC(C)(C)OC(=O)N1CCC(COc2ccc(-c3ccc(S(C)(=O)=O)cc3)nn2)CC1 [Example A1, tert-Butyl 4-[({6-[4-(methylsulfonyl)phenyl]pyridazin-3-yl}oxy)methyl]piperidine-1-carboxylate] | 0.046 µM |
